# From patent publication US20050130983A1, “Pyrrolopyrimidinone derivatives, process for preparation thereof, and method of using and composition comprising them” (priority 2002, published 2005)
row,Structure (SMILES),melting point [°C]
1,"CCCc1cn(C)c2c(=O)[nH]c(-c3cc(S(=O)(=O)N4CCN(CCCOC(C)=O)CC4)ccc3OCC)nc12 [Example 6, 2-{5-[4-(3-Acetoxypropyl)piperazin-1-ylsulfonyl]-2-ethoxyphenyl}-5-methyl-7-n-propyl-3,5-dihydro-4H-pyrrolo[3,2-d]pyrimidin-4-one]",157 to 158.5
2,"CCCOc1ccc(S(=O)(=O)N2CCN(CCOC(C)=O)CC2)cc1-c1nc2c(CCC)cn(CC)c2c(=O)[nH]1 [Example 7, 2-{5-[4-(2-Acetoxyethyl)piperazin-1-ylsulfonyl]-2-n-propoxyphenyl}-5-ethyl-7-n-propyl-3,5-dihydro-4H-pyrrolo[3,2-d]pyrimidin-4-one]",139 to 140
3,"CCCOc1ccc(S(=O)(=O)N2CCN(CCOC(=O)CC)CC2)cc1-c1nc2c(CCC)cn(CC)c2c(=O)[nH]1 [Example 10, 5-Ethyl-2-{5-[4-(2-propionyloxyethyl)piperazin-1-ylsulfonyl]-2-n-propoxyphenyl}-7-n-propyl-3,5-dihydro-4H-pyrrolo[3,2-d]pyrimidin-4-one]",126.5 to 127.5
4,"CCCOc1ccc(S(=O)(=O)N2CCN(CCOC(=O)c3ccccc3)CC2)cc1-c1nc2c(CCC)cn(CC)c2c(=O)[nH]1 [Example 16, 2-{5-[4-(2-Benzoyloxyethyl)piperazin-1-ylsulfonyl]-2-n-propoxyphenyl}-5-ethyl-7-n-propyl-3,5-dihydro-4H-pyrrolo[3,2-d]pyrimidin-4-one]",78 to 79
5,"CCCOc1ccc(S(=O)(=O)N2CCN(CCOC(C)=O)CC2)cc1-c1nc2c(CCCF)cn(CC)c2c(=O)[nH]1 [Example 19, 2-{5-[4-(2-Acetoxyethyl)piperazin-1-ylsulfonyl]-2-n-propoxyphenyl}-5-ethyl-7-(3-fluoropropyl)-3,5-dihydro-4H-pyrrolo[3,2-d]pyrimidin-4-one]",134 to 135

# The remaining lines, values ahead:
row,melting point [°C],Structure (SMILES)
1,71.5 to 73,"CCCOc1ccc(S(=O)(=O)N2CCN(CCOC(=O)CCC)CC2)cc1-c1nc2c(CCC)cn(CC)c2c(=O)[nH]1 [Example 12, 2-{5-[4-(2-Butyryloxyethyl)piperazin-1-ylsulfonyl]-2-n-propoxyphenyl}-5-ethyl-7-n-propyl-3,5-dihydro-4H-pyrrolo[3,2-d]pyrimidin-4-one]"
2,88 to 89,"CCCOc1ccc(S(=O)(=O)N2CCN(CCOC(=O)C(C)C)CC2)cc1-c1nc2c(CCC)cn(CC)c2c(=O)[nH]1 [Example 14, 5-Ethyl-2-{5-[4-(2-isobutyryloxyethyl)piperazin-1-ylsulfonyl]-2-n-propoxyphenyl}-7-n-propyl-3,5-dihydro-4H-pyrrolo[3,2-d]pyrimidin-4-one]"
3,135 to 136,"CCCOc1ccc(S(=O)(=O)N2CCN(CCOC(=O)OCC)CC2)cc1-c1nc2c(CCC)cn(CC)c2c(=O)[nH]1 [Example 17, 2-{5-[4-(2-Ethoxycarbonyloxyethyl)piperazin-1-ylsulfonyl]-2-n-propoxyphenyl}-5-ethyl-7-n-propyl-3,5-dihydro-4H-pyrrolo[3,2-d]pyrimidin-4-one]"
